What was measured:
NURR-1/RXRγ = molecular target: T1, NURR-1/RXRγ (Homo sapiens, UniProt P48443); assay: Transactivation test, NURR-1-Gal4/RXRγ, luciferase reporter in Cos-7 cells; type: cell-based; details: for Emax: COS-7, induction level relative to reference XCT0135908 at 2×10^−5 M (=100%), read-out: hNurr1_RXRgFL Emax (%); for EC50: Cos-7 cells, NURR-1-Gal4/RXRγ, luciferase reporter, read-out: hNurr1_RXRgFL EC50
T1 construct: expressed in transfected cells; host or cells: Cos-7 cells

[1] = Plasma pharmacokinetics in mice after oral administration; type: in vivo; details: mouse, male C57/Bl6 mice, oral 10 mg/kg; for AUC: sampling 15 min to 7 h, log-linear trapezoidal method, read-out: AUCplasma; for Cmax: suspension in 1% methylcellulose/0.1% Poloxamer 188
Method in brief: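 Male C57/B16 mice (25-30 g, fed, 9 per dose) received 10 mg/kg by oral gavage as a suspension in 1% methylcellulose 400 cps/0.1% Poloxamer 188/water. Plasma was sampled at 15 min, 30 min, 1 h, 3 h and 7 h and quantified by LC-MS/MS after protein precipitation. Parameters were derived non-compartmentally, with AUC by the log-linear trapezoidal method.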

NURR-1/RXRα = molecular target: T2, NURR-1/RXRα (Homo sapiens, UniProt P19793); assay: Transactivation test, NURR-1-Gal4/RXRα, luciferase reporter in Cos-7 cells; type: cell-based; details: for Emax: COS-7, induction level relative to reference XCT0135908 at 2×10^−5 M (=100%), read-out: hNurr1_RXRaFL Emax (%); for EC50: Cos-7 cells, NURR-1-Gal4/RXRα, luciferase reporter, read-out: hNurr1_RXRaFL EC50
T2 construct: expressed in transfected cells; host or cells: Cos-7 cells
T2 sequence (P19793 whole entry, the tested form may be a part): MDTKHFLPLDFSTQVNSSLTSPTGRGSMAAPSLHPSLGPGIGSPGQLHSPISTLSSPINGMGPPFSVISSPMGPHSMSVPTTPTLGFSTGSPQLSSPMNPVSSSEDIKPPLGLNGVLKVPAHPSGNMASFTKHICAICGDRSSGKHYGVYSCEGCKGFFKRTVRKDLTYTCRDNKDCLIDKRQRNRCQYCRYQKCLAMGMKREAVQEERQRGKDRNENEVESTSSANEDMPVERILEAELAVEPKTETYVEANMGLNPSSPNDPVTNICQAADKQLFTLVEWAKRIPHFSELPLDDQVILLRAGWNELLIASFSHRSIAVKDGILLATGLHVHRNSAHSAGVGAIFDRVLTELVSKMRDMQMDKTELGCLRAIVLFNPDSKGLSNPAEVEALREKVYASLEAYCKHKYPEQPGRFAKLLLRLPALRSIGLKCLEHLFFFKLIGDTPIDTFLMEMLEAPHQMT
T2 sequence (P43354 whole entry partner, the tested form may be a part): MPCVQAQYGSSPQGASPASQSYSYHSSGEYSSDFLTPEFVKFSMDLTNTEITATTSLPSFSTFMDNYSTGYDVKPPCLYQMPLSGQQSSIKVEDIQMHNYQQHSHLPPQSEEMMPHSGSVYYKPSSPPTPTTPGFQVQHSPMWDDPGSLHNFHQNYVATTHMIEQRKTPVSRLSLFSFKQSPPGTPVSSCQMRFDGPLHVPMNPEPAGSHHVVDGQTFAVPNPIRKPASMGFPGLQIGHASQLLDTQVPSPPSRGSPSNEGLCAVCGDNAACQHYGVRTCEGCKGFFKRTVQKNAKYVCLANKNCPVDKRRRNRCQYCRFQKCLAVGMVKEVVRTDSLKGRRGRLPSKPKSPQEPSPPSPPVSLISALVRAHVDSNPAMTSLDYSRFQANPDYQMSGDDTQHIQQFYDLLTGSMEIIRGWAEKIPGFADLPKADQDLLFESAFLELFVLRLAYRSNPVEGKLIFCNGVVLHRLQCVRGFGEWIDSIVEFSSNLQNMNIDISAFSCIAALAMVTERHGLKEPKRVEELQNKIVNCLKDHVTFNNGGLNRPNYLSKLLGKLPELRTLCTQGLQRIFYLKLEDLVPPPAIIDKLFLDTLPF
T2 sequence (P04386 1-147 partner limits assumed): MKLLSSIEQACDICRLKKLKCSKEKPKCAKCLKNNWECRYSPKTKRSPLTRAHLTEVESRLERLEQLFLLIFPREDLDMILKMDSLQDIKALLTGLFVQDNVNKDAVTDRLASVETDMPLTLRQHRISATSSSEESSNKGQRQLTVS

T1 sequence (P48443 whole entry, the tested form may be a part): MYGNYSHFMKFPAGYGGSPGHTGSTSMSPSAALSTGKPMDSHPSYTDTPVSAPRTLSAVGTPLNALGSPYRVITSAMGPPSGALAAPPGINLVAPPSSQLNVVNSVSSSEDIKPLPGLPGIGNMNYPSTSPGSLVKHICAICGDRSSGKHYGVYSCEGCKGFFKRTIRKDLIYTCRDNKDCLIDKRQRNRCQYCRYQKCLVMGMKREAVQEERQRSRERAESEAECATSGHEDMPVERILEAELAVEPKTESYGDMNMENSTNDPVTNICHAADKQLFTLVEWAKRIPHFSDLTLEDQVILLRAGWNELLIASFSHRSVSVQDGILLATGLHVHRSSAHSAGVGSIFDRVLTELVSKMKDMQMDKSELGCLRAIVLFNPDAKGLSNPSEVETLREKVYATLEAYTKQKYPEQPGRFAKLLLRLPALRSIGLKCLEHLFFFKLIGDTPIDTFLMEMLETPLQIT
T1 sequence (P43354 whole entry partner, the tested form may be a part): as the sequence (P43354 whole entry partner, the tested form may be a part) above
T1 sequence (P04386 1-147 partner limits assumed): as the sequence (P04386 1-147 partner limits assumed) above

SMILES	Emax (NURR-1/RXRγ) [%]	EC50 (NURR-1/RXRγ) [nM]	AUC [1] [ng·h/mL]	Cmax [1] [ng/mL]	Emax (NURR-1/RXRα) [%]	EC50 (NURR-1/RXRα) [nM]
CC1(C)CCC(C)(C)c2cc(-c3cccc(N4CC(C(=O)O)C4)c3)ccc21 [Example 10, 1-[5-(1,1,4,4-tetrametyltetralin-6-yl)phenyl]azetidine-3-carboxylic acid]	85	24	25700	8760	84	8
CC(C)CC1CN(c2cccc(N3CC(C(=O)O)C3)c2)c2ccc(C(F)(F)F)cc2O1 (stereo not drawn) [Example 118, 1-[3-[2-isobutyl-7-(trilfuoromethyl)-2,3-dihydro-1,4-benzoxazin-4-yl]phenyl]azetidine-3-carboxylic acid]	80	47	9820	4600	83	31
